Like-named read-outs stand apart in the source and are kept apart here.
Assays:
[1] = target: hMC3R (Homo sapiens, UniProt P41968); assay: Human MC3R radioligand binding assay; conditions: hMCR binding selectivity, [125I] NDP-MSH, membranes
Experimental: (§1) • Na^125I (0.5 mCi, 17.4 Ci/mg) was added to 50 μL sodium phosphate (50 mM, pH7.4) in an eppendorf tube precoated with IODOGEN. After incubation for 10 mins the phosphate buffer containing the iodine was added to NDP-MSH (10 ul at 1 mg/mL) in a separate eppendorf tube. This was incubated for a further 10 mins. The iodinated NDP-MSH was purified by HPLC on a Zorbax SB 300 column using solvent A: 0.05% TFA and solvent B: 90% acetonitrile 0.045% TFA with a linear gradient, 0-67% B over 60 mins. […] Resuspended membranes were kept on ice until they were added to the wells of the plate. Binding Protocol for 400 microassays per vial: • Assays were performed in 96 well polypropylene plates. […] This was incubated for 1 hr at 37° C.
(§2) Radioligand binding assays were carried out using commercial or in-house prepared hMC1R, hMC3R and hMC4R membranes and [125I]
(§3) The homogenisation and ice incubation was repeated three times. The mixture was then centrifuged at 1260×g for 5 mins. […] This was centrifuged at 30,000×g for 90 mins at 4° C.

[2] = target: hMC1R (Homo sapiens, UniProt Q01726); assay: Human MC1R radioligand binding assay; conditions: hMCR binding selectivity, [125I] NDP-MSH, membranes
Sequence of hMC1R (Q01726 whole entry): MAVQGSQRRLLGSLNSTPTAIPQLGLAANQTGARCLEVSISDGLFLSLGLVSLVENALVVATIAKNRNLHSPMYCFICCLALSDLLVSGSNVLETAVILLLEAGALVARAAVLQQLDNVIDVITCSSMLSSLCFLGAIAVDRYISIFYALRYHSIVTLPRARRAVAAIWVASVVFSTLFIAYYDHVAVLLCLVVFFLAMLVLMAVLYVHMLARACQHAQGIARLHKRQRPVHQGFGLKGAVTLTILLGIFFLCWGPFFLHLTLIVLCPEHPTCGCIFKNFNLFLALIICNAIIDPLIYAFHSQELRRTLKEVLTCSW
Experimental: as §1, §2, §3

[3] = target: hMC4R (Homo sapiens, UniProt P32245); assay: Human MC4R radioligand binding assay; conditions: hMCR binding selectivity, [125I] NDP-MSH, membranes
Sequence of hMC4R (P32245 whole entry): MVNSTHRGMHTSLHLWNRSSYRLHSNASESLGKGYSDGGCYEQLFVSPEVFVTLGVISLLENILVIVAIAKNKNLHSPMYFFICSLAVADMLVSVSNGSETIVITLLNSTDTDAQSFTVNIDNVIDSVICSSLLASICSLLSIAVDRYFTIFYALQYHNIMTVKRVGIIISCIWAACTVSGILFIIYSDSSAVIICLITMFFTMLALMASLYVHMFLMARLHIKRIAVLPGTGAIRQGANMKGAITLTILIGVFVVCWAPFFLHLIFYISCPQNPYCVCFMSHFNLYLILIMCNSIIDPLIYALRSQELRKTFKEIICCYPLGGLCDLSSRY
Experimental: as §1, §2, §3

[4] = target: T1, rhesus monkey MC5R (membranes) (Macaca mulatta, UniProt A0A5F8AEA9); assay: MC5R radioligand binding, rhesus monkey MC5R membranes
T1 construct: expressed in transfected cells
T1 sequence (A0A5F8AEA9 1-325): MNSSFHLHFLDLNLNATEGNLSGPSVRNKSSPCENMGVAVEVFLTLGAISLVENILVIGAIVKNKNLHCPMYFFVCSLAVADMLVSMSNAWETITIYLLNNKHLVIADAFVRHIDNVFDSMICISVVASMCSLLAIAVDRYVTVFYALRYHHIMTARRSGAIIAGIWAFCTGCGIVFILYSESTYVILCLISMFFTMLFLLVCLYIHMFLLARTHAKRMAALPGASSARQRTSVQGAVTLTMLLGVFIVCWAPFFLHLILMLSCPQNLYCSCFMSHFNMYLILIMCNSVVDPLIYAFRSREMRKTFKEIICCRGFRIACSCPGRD

[5] = target: T2, rhesus monkey MC5R (whole cells) (Macaca mulatta, UniProt A0A5F8AEA9); assay: MC5R radioligand binding, rhesus monkey MC5R whole cells
T2 construct: expressed in transfected cells
T2 sequence (A0A5F8AEA9 1-325): as above

[6] = target: T3, mouse MC5R (membrane) (Mus musculus, UniProt P41149); assay: MC5R radioligand binding, mouse MC5R membranes
T3 construct: purchased Euroscreen
T3 sequence (P41149 whole entry): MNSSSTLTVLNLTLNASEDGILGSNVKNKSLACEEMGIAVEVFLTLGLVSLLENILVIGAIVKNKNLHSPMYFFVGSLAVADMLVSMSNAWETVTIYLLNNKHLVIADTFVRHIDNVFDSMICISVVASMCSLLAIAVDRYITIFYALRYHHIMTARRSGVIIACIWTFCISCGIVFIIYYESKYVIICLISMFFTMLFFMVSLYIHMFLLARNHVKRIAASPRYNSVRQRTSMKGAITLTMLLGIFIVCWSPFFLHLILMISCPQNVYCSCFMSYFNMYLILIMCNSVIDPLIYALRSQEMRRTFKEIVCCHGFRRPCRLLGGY

[7] = target: T4, human MC5R (Homo sapiens, UniProt P33032); assay: cAMP assay, antagonism of alpha-MSH, HEK 293 cells expressing human MC5R; type: cell-based; conditions: antagonism of 10^−6 M alpha-MSH
T4 construct: host or cells: HEK 293
T4 sequence (P33032 whole entry): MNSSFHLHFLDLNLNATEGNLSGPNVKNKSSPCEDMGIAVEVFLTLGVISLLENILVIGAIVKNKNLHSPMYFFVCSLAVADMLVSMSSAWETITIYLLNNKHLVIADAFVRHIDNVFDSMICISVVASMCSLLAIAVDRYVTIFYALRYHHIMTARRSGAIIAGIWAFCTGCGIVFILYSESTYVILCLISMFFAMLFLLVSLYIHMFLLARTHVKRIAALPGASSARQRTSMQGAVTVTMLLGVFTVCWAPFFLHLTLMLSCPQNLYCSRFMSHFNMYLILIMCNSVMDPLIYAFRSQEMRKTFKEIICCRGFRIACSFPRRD
Experimental: (§4) The mammalian cell line, human embryonic kidney cells (HEK 293), were maintained in Dulbeccos Modified Eagle's medium (DMEM) with 5% fetal bovine serum (BSA), L-glutamine, high glucose and antibiotics/antimycotics. On the day prior to transfection, cells were passaged using trypsin/EDTA and seeded into 75 cm^2 flasks so that they would be approximately 90% confluent the next day. The next day, the cell media was replaced with fresh antibiotic/antimycotic-containing DMEM. Approximately 100 μl of the transfection lipid Turbofectin 8.0 (Origene Technologies, MD, USA), was diluted in 1.0 mL of serum and antibiotic/antimycotic-free OptiMEM in a sterile 15 mL tube and incubated for 5 mins at room temperature. […]
(§5) Basal level (of cAMP) control wells contained stimulation buffer only (no agonist or compounds). […] After incubation, 10 μl of lysis buffer (10% Tween 20, 1 M HEPES, 0.1% BSA, protease inhibitors, ddH2O) was added to all wells to be measured. […] 5 μl of diluted acceptor beads were added to each well to be measured, then the plate was incubated for 30 mins at room temperature, in the dark, with gentle shaking. […] Plates were read on an Envision plate reader (Perkin Elmer) after 1 hr and ˜16hrs incubation. cAMP concentration in the cells was determined by the use of a ‘standard curve’ generated from the output of known cAMP concentrations as described below. […]

[8] = target: T5, human MC5R (hMC5R) (Homo sapiens, UniProt P33032); assay: Human MC5R radioligand binding assay (membranes, [125I] NDP-MSH displacement)
T5 construct: purchased Perkin Elmer RBXMC5M400UA
T5 sequence (P33032 whole entry): as above
Method in brief: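 Displacement of [125I]NDP-MSH (radioiodinated in house, HPLC-purified) from hMC5R membranes by test compound measured after 1 hr incubation at 37° C.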

[9] = target: T4, human MC5R; assay: cAMP stimulation assay, agonism, HEK 293 cells expressing human MC5R; type: cell-based
Experimental: as §4, §5

[10] = test system: sebum excretion; conditions: oral, after 8-12 weeks of therapy; cited from earlier work
[11] = hMC5R binding, tested as trifluoroacetate or hydrochloride salts, or free bases, read-out: MC5R radioligand IC50

Sequence of hMC3R (P41968 whole entry): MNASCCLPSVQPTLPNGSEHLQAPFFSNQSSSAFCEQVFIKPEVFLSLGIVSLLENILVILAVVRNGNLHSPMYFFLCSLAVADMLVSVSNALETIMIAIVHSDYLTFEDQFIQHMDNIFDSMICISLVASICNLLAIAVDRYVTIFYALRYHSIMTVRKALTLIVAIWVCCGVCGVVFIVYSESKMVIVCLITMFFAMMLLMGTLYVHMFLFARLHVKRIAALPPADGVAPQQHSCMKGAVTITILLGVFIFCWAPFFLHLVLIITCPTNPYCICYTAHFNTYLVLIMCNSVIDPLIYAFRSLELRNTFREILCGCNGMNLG

O=C(/C=C/c1ccc(Cl)cc1)NC[C@@H]1CCN(CC(c2ccccc2)c2ccccc2)C(=O)[C@H](CCN2CCCCC2)N1 [Compound 33, (E)-3-(4-chlorophenyl)-N-(((3S,5S)-1-(2,2-diphenylethyl)-2-oxo-3-(2-(piperidin-1-yl)ethyl)-1,4-diazepan-5-yl)methyl)acrylamide] gave an IC50 [1] of 1.5 µM, an IC50 [2] of 2.85 µM and an IC50 [3] of 6.06 µM.
For O=C(NC[C@@H]1CCN(CC(c2ccccc2)c2ccccc2)C(=O)[C@H](CCCN2CCCCC2)N1)c1ccc2ccccc2c1 [Compound 64, N-(((3S,5S)-1-(2,2-diphenylethyl)-2-oxo-3-(3-(piperidin-1-yl)propyl)-1,4-diazepan-5-yl)methyl)-2-naphthamide], the IC50 [4] was 7.31 µM and the IC50 [5] was > 5 µM.
For N=C(N)NCCC[C@@H]1N[C@H](CNC(=O)c2ccc3ccccc3c2)CCN(CC(c2ccccc2)c2ccccc2)C1=O [Compound 105, N-(((3S,5S)-1-(2,2-diphenylethyl)-3-(3-guanidinopropyl)-2-oxo-1,4-diazepan-5-yl)methyl)-2-naphthamide], the IC50 [6] was 4 µM, the IC50 [4] was 6.03 µM and the IC50 [2] was 6.66 µM. For the same molecule, the IC50 [5] was 3 µM and the IC50 [3] was 3.28 µM.
In the case of CCC(CC)CN1CC[C@@H](CNC(=O)/C=C/c2ccc(Cl)cc2)N[C@@H](CCN2CCCCC2)C1=O [Compound 331, (E)-3-(4-chlorophenyl)-N-(((3S,5S)-1-(2-ethylbutyl)-2-oxo-3-(2-(piperidin-1-yl)ethyl)-1,4-diazepan-5-yl)methyl)acrylamide], the IC50 [7] is reported as 0.094 µM, the IC50 [8, 11] is reported as < 1 µM and the IC50 ([8]; hMCR binding selectivity, [125I] NDP-MSH, membranes, read-out: human MC5R IC50) is reported as 0.15 µM. For the same molecule, the IC50 [1] was 1.83 µM and the EC50 [9] was > 10 µM.
In the case of O=C(NC[C@@H]1CCN(Cc2cc(Cl)cc(Cl)c2)C(=O)[C@H](CCN2CCCCC2)N1)c1cc(-c2ccc(Cl)cc2)on1 [Compound 527, 5-(4-chlorophenyl)-N-(((3S,5S)-1-(3,5-dichlorobenzyl)-2-oxo-3-(2-(piperidin-1-yl)ethyl)-1,4-diazepan-5-yl)methyl)isoxazole-3-carboxamide], the IC50 [8, 11] is reported as < 0.1 µM.
For O=C(NC[C@@H]1CCN(Cc2cc(Cl)cc(Cl)c2)C(=O)[C@H](CCN2CCCCC2)N1)c1ccc(Cl)cc1Cl [Compound 528, 2,4-dichloro-N-(((3S,5S)-1-(3,5-dichlorobenzyl)-2-oxo-3-(2-(piperidin-1-yl)ethyl)-1,4-diazepan-5-yl)methyl)benzamide], the IC50 [8, 11] was < 0.01 µM.
In the case of COc1c(C(=O)NC[C@@H]2CCN(Cc3cc(Cl)cc(Cl)c3)C(=O)[C@H](CCN3CCCCC3)N2)ccc2ccccc12 [Compound 531, N-(((3S,5S)-1-(3,5-dichlorobenzyl)-2-oxo-3-(2-(piperidin-1-yl)ethyl)-1,4-diazepan-5-yl)methyl)-1-methoxy-2-naphthamide], the IC50 [8, 11] is reported as < 0.1 µM.
For O=C(/C=C/c1ccc(OC(F)(F)F)cc1)NC[C@@H]1CCN(Cc2cc(Cl)cc(Cl)c2)C(=O)[C@H](CCN2CCCCC2)N1 [Compound 532, (E)-N-(((3S,5S)-1-(3,5-dichlorobenzyl)-2-oxo-3-(2-(piperidin-1-yl)ethyl)-1,4-diazepan-5-yl)methyl)-3-(4-(trifluoromethoxy)phenyl)acrylamide], the IC50 [8, 11] was < 0.01 µM.
In the case of CC[C@H](CN1CC[C@@H](CNC(=O)c2cc(-c3ccc(Cl)cc3)on2)N[C@@H](CCN2CCCCC2)C1=O)c1ccccc1 [Compound 533, 5-(4-chlorophenyl)-N-(((3S,5S)-2-oxo-1-((S)-2-phenylbutyl)-3-(2-(piperidin-1-yl)ethyl)-1,4-diazepan-5-yl)methyl)isoxazole-3-carboxamide], the IC50 [8, 11] is reported as < 0.01 µM.
In the case of CC[C@H](CN1CC[C@@H](CNC(=O)c2ccc(Cl)cc2Cl)N[C@@H](CCN2CCCCC2)C1=O)c1ccccc1 [Compound 534, 2,4-dichloro-N-(((3S,5S)-2-oxo-1-((S)-2-phenylbutyl)-3-(2-(piperidin-1-yl)ethyl)-1,4-diazepan-5-yl)methyl)benzamide], the IC50 [8, 11] is reported as < 0.01 µM.
In the case of O=C1[C@H](CCN2CCCCC2)N[C@H](CN2C(=O)c3cc(Cl)c(Cl)cc3C2=O)CCN1Cc1cc(Cl)cc(Cl)c1 [Compound 535, 5,6-dichloro-2-(((3S,5S)-1-(3,5-dichlorobenzyl)-2-oxo-3-(2-(piperidin-1-yl)ethyl)-1,4-diazepan-5-yl)methyl)isoindoline-1,3-dione], the IC50 [8, 11] is reported as < 1 µM.
For O=C(/C=C/c1ccc(OC(F)(F)F)c(F)c1)NC[C@@H]1CCN(Cc2cc(Cl)cc(Cl)c2)C(=O)[C@H](CCN2CCCCC2)N1 [Compound 536, (E)-N-(((3S,5S)-1-(3,5-dichlorobenzyl)-2-oxo-3-(2-(piperidin-1-yl)ethyl)-1,4-diazepan-5-yl)methyl)-3-(3-fluoro-4-(trifluoromethoxy)phenyl)acrylamide], the IC50 [8, 11] was < 0.1 µM.
For CC[C@H](CN1CC[C@@H](CNC(=O)c2ccc3cc(OC)ccc3c2)N[C@@H](CCN2CCCCC2)C1=O)c1ccccc1 [Compound 537, 6-methoxy-N-(((3S,5S)-2-oxo-1-((S)-2-phenylbutyl)-3-(2-(piperidin-1-yl)ethyl)-1,4-diazepan-5-yl)methyl)-2-naphthamide], the IC50 [8, 11] was < 0.1 µM.
In the case of CC[C@H](CN1CC[C@@H](CNC(=O)c2ccc3ccccc3c2OC)N[C@@H](CCN2CCCCC2)C1=O)c1ccccc1 [Compound 538, 1-methoxy-N-(((3S,5S)-2-oxo-1-((S)-2-phenylbutyl)-3-(2-(piperidin-1-yl)ethyl)-1,4-diazepan-5-yl)methyl)-2-naphthamide], the IC50 [8, 11] is reported as < 0.1 µM.
With CC[C@H](CN1CC[C@@H](CNC(=O)/C=C/c2ccc(OC(F)(F)F)c(F)c2)N[C@@H](CCN2CCCCC2)C1=O)c1ccccc1 [Compound 539, (E)-3-(3-fluoro-4-(trifluoromethoxy)phenyl)-N-(((3S,5S)-2-oxo-1-((S)-2-phenylbutyl)-3-(2-(piperidin-1-yl)ethyl)-1,4-diazepan-5-yl)methyl)acrylamide] the IC50 [8, 11] was < 0.01 µM.
In the case of CC1=C(/C=C/C(C)=C/C=C/C(C)=C\C(=O)O)C(C)(C)CCC1 [isotretinoin], the “reduction of sebum excretion” value [10] is listed as “up to 90%”.

— patent US8008291B2 (Mimetica Pty Ltd, priority 2008, dated 2011)
